Columns and labels:
[1] = target: Carbonic anhydrase 1 (Homo sapiens, UniProt P00915); assay: CA Enzyme Assay
Description: (§1) CA activity was measured by the Maren method which is based on determination of the time required for the pH to decrease from 10.0 to 7.4 due to CO2 hydration [Maren et al., J. Pharm. Exp. Ther., 130:2629-2634].

[2] = target: Carbonic anhydrase 2 (Homo sapiens, UniProt P00918); assay: CA Enzyme Assay
Description: as §1

Sequence of Carbonic anhydrase 1 (P00915 whole entry): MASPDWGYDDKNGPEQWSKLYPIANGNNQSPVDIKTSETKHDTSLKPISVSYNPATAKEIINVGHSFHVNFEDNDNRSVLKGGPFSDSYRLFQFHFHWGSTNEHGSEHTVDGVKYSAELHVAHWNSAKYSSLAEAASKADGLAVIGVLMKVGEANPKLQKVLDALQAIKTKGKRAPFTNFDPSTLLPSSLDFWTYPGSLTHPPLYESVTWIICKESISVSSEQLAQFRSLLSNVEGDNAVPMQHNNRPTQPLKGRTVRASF

CC/C(=C(/CC)c1ccc(O)cc1)c1ccc(O)cc1
IC50 [1]: 94 µM
IC50 [2]: 89 µM

CC1CCCC(O)CCCCCc2cc(O)cc(O)c2C(=O)O1 (stereo unspecified) [Zeranol (4)]
IC50 [1]: 898 µM
IC50 [2]: 101 µM

CC12C=CC3=C4CCC(=O)C=C4CCC3C1CCC2O (stereo unspecified) [Trenbolone (2)]
IC50 [1]: 55 µM
IC50 [2]: 159 µM

Source: BindingDB's records for doi:10.3109/14756366.2011.584535 (Balikesir University, 2012)
